pEC50: −log10 of the molar value. Non-standard residues stand in square brackets, D forms with d. Nle = CCCC[C@H](N)C(=O)O; Nva = CCC[C@H](N)C(=O)O
Legend:
[1] = system: cultured rat pituitary cells; assay: Secretion of ACTH and β-endorphin by cultured rat pituitary cells (procedure of Endocrinology, 91, 562 (1972)); type: cell-based; conditions: for pEC50: stimulation of secretion of ACTH and β-endorphin, cultured rat pituitary cells, read-out: Half-maximal responses (concentration of the peptide); for stimulation of the secretion of ACTH and β-END-LI: testing by the general procedure of Example III
Description: (§1) The synthetic peptide [D-Glu²⁰]-oCRF is examined for its effects on the secretion of ACTH and β-endorphin in vitro and was also in vivo. The potency of synthetic [D-Glu²⁰]-oCRF to stimulate the secretion of ACTH and β-endorphin by cultured rat pituitary cells is measured using the procedure as generally set forth in Endocrinology, 91, 562 (1972) and compared against synthetic oCRF. […] In vivo testing is carried out using the general procedure set forth in C.

[2] = In vivo testing (general procedure of C. Rivier et al., Science, 218, 377 (1982)): duration of potency and blood pressure; conditions: for lowering of blood pressure: general procedure of Example III
Description: as §1

Molecule | lowering of blood pressure [2] | stimulation of the secretion of ACTH and β-END-LI [1] | also measured
CC[C@H](C)[C@H](NC(=O)[C@H](CC(=O)O)NC(=O)[C@H](CC(C)C)NC(=O)[C@H](CC(C)C)NC(=O)[C@H](CCCCN)NC(=O)[C@H](CCCNC(=N)N)NC(=O)[C@H](CC(N)=O)NC(=O)[C@H](CO)NC(=O)[C@H](Cc1c[nH]cn1)NC(=O)[C@H](C)NC(=O)[C@H](CCC(N)=O)NC(=O)[C@H](CCC(N)=O)NC(=O)[C@H](C)NC(=O)[C@H](CC(C)C)NC(=O)[C@H](CCC(N)=O)NC(=O)[C@H](CC(=O)O)NC(=O)[C@H](C)NC(=O)[C@H](CCCCN)NC(=O)[C@@H](NC(=O)[C@H](CCSC)NC(=O)[C@@H](CCC(=O)O)NC(=O)[C@H](CC(C)C)NC(=O)[C@@H](NC(=O)[C@H](CCC(=O)O)NC(=O)[C@H](CCCNC(=N)N)NC(=O)[C@H](CC(C)C)NC(=O)[C@H](CC(C)C)NC(=O)[C@H](Cc1c[nH]cn1)NC(=O)[C@H](Cc1ccccc1)NC(=O)[C@@H](NC(=O)[C@H](CC(C)C)NC(=O)[C@H](CC(=O)O)NC(=O)[C@H](CC(C)C)NC(=O)[C@H](CO)NC(=O)[C@@H](NC(=O)[C@@H]1CCCN1C(=O)[C@@H]1CCCN1C(=O)[C@H](CCC(=O)O)NC(=O)[C@H](CCC(N)=O)NC(=O)[C@@H](N)CO)[C@@H](C)CC)[C@@H](C)O)C(C)C)[C@@H](C)O)C(=O)N[C@@H](C)C(N)=O [[D-Glu²⁰]-oCRF] | significant lowering of blood pressure | – | potency compared with the native hormone ([1]; in vitro, compared against synthetic oCRF / native peptides): about twice as potent as the native hormone; secretory response to maximal concentrations ([1]; maximal (1-5 nM) concentrations): at a plateau level; pEC50 [1]: ~9.77; duration of potency [2]: longer duration of potency
H-SQEPPISLDLTFHLLRE[Nle]L[dE][Nle]AKAEQEAEQA[dH]LNRLLLEEA-NH2 [[Nle^18,21, D-Glu²⁰, D-His³²]-AHC] | very significant lowering of blood pressure | stimulates the secretion of ACTH and β-END-LI | –
H-SQ[dY]PPISLDLTFHLLRE[Nle]L[dE][Nva]AK[dA]EQEAEQAALNRLLLEEA-NH2 | very significant lowering of blood pressure | stimulates the secretion of ACTH and β-END-LI | –
CCCC[C@H](NC(=O)[C@@H](CCC(=O)O)NC(=O)[C@H](CC(C)C)NC(=O)[C@@H](NC(=O)[C@H](CCC(=O)O)NC(=O)[C@H](CCCNC(=N)N)NC(=O)[C@H](CC(C)C)NC(=O)[C@H](CC(C)C)NC(=O)[C@H](Cc1c[nH]cn1)NC(=O)[C@H](Cc1ccccc1)NC(=O)[C@@H](NC(=O)[C@H](CC(C)C)NC(=O)[C@H](CC(=O)O)NC(=O)[C@H](CC(C)C)NC(=O)[C@H](CO)NC(=O)[C@@H](NC(=O)[C@@H]1CCCN1C(=O)[C@@H]1CCCN1C(=O)[C@H](CCC(=O)O)NC(=O)[C@H](CCC(N)=O)NC(=O)[C@@H](N)CO)[C@@H](C)CC)[C@@H](C)O)C(C)C)C(=O)N[C@H](C(=O)N[C@@H](CCCCN)C(=O)N[C@@H](C)C(=O)N[C@@H](CC(=O)O)C(=O)N[C@@H](CCC(N)=O)C(=O)N[C@@H](CC(C)C)C(=O)N[C@@H](C)C(=O)N[C@@H](CCC(N)=O)C(=O)N[C@@H](CCC(N)=O)C(=O)N[C@@H](C)C(=O)N[C@H](Cc1c[nH]cn1)C(=O)N[C@@H](CO)C(=O)N[C@@H](CC(N)=O)C(=O)N[C@@H](CCCNC(=N)N)C(=O)N[C@@H](CCCCN)C(=O)N[C@@H](CC(C)C)C(=O)N[C@@H](CC(C)C)C(=O)N[C@@H](CC(=O)O)C(=O)N[C@H](C(=O)N[C@@H](C)C(N)=O)[C@@H](C)CC)[C@@H](C)O [[D-Glu²⁰, Nle²¹, D-His³²]-oCRF] | very significant lowering of blood pressure | – | –
H-GlU-Pro-Pro-Ile-Ser-Leu-Asp-Leu-Thr-D-Phe-His-Leu-Leu-Arg-Glu-Val-Leu-D-GlU-Met-Ala-Arg-Ala-Glu-Gln-Leu-Ala-Gln-Gln-Ala-His-Ser-Asn-Arg-Lys-Leu-Met-Glu-Ile-Ile-NH₂ [[D-Phe¹², D-Glu²⁰]-rCRF(3-41)] | very significant lowering of blood pressure | stimulates the secretion of ACTH and β-END-LI | –
H-SQEPPISLDLTFHLLREVL[dE][Nle]TK[dA]DQLAQQAHSNRKL[Nle]DIA-NH2 [[D-Glu²⁰, D-Ala²⁴, Nle^21,38]-oCRF] | very significant lowering of blood pressure | – | –
H-SQEPPISLDLTFHLREVL[dE][Nle]TKADQLAQQAHSNRKLLDIA-NH2 [[D-Glu²⁰, Nle²¹]-oCRF] | very significant lowering of blood pressure | stimulates the secretion of ACTH and β-END-LI | –
H-Ser-Glu-Glu-pro-pro-lle-Ser-Leu-Asp-Leu-Thr-D-Phe-Glu-Leu-Leu-Arg-Glu-Nle-Leu-Glu-Met-Glu-Orn-Ala-Glu-Lys-Glu-Ala-Glu-Gln-Ala-Ala-Leu-Asn-Arg-Leu-Leu-Leu-Glu-Glu-Ala-NH₂ [[Glu^2,13,22 D-Phe¹², Nle¹⁸, Orn²³]-AHC] | very significant lowering of blood pressure | stimulates the secretion of ACTH and β-END-LI | –
For-Ser-GlU-GlU-Pro-Pro-Ile-Ser-Leu-Asp-Leu-Thr-D-Phe-His-Leu-Leu-Arg-Glu-Val-Leu-Glu-Nle-Ala-Arg-Ala-Glu-Gln-Leu-Ala-Gln-Gln-Ala-D-His-Ser-Asn-Arg-Lys-Leu-Nle-Glu-Ile-Ile-NH₂ | very significant lowering of blood pressure | stimulates the secretion of ACTH and β-END-LI | –
CC[C@H](C)[C@H](NC(=O)[C@@H](NC(=O)[C@H](CC(=O)O)NC(=O)[C@H](CC(C)C)NC(=O)[C@H](CC(C)C)NC(=O)[C@H](CC(C)C)NC(=O)[C@H](CCCNC(=N)N)NC(=O)[C@H](CC(N)=O)NC(=O)[C@H](CC(N)=O)NC(=O)[C@H](C)NC(=O)[C@H](C)NC(=O)[C@H](CCC(N)=O)NC(=O)[C@H](CCC(=O)O)NC(=O)[C@H](CCCCN)NC(=O)[C@H](CCC(=O)O)NC(=O)[C@H](CCCCN)NC(=O)[C@H](CCC(=O)O)NC(=O)[C@H](CCC(N)=O)NC(=O)[C@H](CCCCN)NC(=O)[C@H](CCCNC(=N)N)NC(=O)[C@H](C)NC(=O)[C@@H](CCC(=O)O)NC(=O)[C@@H](NC(=O)[C@H](CCSC)NC(=O)[C@H](CCCCN)NC(=O)[C@H](CCCNC(=N)N)NC(=O)[C@H](CC(C)C)NC(=O)[C@H](CC(C)C)NC(=O)[C@H](CCC(=O)O)NC(=O)[C@@H](Cc1ccccc1)NC(=O)[C@H](CO)NC(=O)[C@H](CC(C)C)NC(=O)[C@H](CC(=O)O)NC(=O)[C@@H](NC(=O)[C@H](CO)NC(=O)[C@@H](NC(=O)[C@@H]1CCCN1C(=O)[C@@H]1CCCN1C(=O)CNC(=O)[C@@H]1CCC(=O)N1)[C@@H](C)CC)[C@@H](C)CC)[C@@H](C)CC)[C@@H](C)CC)C(N)=O | very significant lowering of blood pressure | stimulates the secretion of ACTH and β-END-LI | –
H-SQEPPISLDLT[dF]HLLREML[dE]RAKAEQEAEQAALNRLLLEEA-NH2 [[D-Phe¹², D-Glu²⁰, Arg²¹]-AHC] | very significant lowering of blood pressure | stimulates the secretion of ACTH and β-END-LI | –
Acr-Glu-Glu-Pro-Pro-Ile-Ser-Leu-Asp-Leu-Thr-D-Phe-His-Leu-Leu-Arg-Glu-Val-Leu-Glu-Nle-Ala-Arg-Ala-Glu-Gln-Leu-Ala-Gln-Gln-Ala-D-His-Ser-Asn-Arg-Lys-Leu-NIe-Glu-Ile-Ile-NH₂ | very significant lowering of blood pressure | stimulates the secretion of ACTH and β-END-LI | –
H-SQEPPISLDLT[dF]HLLRE[Nle]LE[Nle]AK[dA]EQEAEQAALNRLLLEEA-NH2 [[D-Phe¹², Nle^18,21, D-Ala²⁴]-AHC] | very significant lowering of blood pressure | stimulates the secretion of ACTH and β-END-LI | –
H-Ser-Gln-GluU-Pro-Pro-Ile-Ser-Leu-Asp-Leu-Thr-D-Phe-His-Leu-Leu-Arg-Glu-Val-Leu-Glu-Nle-Thr-Lys-Ala-Asp-Gln-Leu-Ala-Gln-Gln-Ala-His-Ser-Asn-Arg-Lys-Leu-Leu-Asp-Ile-Ala-NH₂ [[D-phe¹², Nle²¹ -oCRF] | very significant lowering of blood pressure | stimulates the secretion of ACTH and β-END-LI | –
CC[C@H](C)[C@H](NC(=O)[C@H](CC(=O)O)NC(=O)[C@H](CC(C)C)NC(=O)[C@H](CC(C)C)NC(=O)[C@H](CCCCN)NC(=O)[C@H](CCCNC(=N)N)NC(=O)[C@H](CC(N)=O)NC(=O)[C@H](CO)NC(=O)[C@H](Cc1c[nH]cn1)NC(=O)[C@H](C)NC(=O)[C@H](CCC(N)=O)NC(=O)[C@H](CCC(N)=O)NC(=O)[C@H](C)NC(=O)[C@H](CC(C)C)NC(=O)[C@H](CCC(N)=O)NC(=O)[C@H](CC(=O)O)NC(=O)[C@H](C)NC(=O)[C@H](CCCCN)NC(=O)[C@@H](NC(=O)[C@H](CCSC)NC(=O)[C@H](CCC(=O)O)NC(=O)[C@H](CC(C)C)NC(=O)[C@@H](NC(=O)[C@H](CCC(=O)O)NC(=O)[C@H](CCCNC(=N)N)NC(=O)[C@H](CC(C)C)NC(=O)[C@H](CC(C)C)NC(=O)[C@H](Cc1c[nH]cn1)NC(=O)[C@H](Cc1ccccc1)NC(=O)[C@@H](NC(=O)[C@H](CC(C)C)NC(=O)[C@H](CC(=O)O)NC(=O)[C@H](CC(C)C)NC(=O)[C@H](CO)NC(=O)[C@@H](NC(=O)[C@@H]1CCCN1C(=O)[C@@H]1CCCN1C(=O)[C@H](CCC(=O)O)NC(=O)[C@H](CCC(N)=O)NC(=O)[C@@H](N)CO)[C@@H](C)CC)[C@@H](C)O)C(C)C)[C@@H](C)O)C(=O)N[C@@H](C)C(N)=O [oCRF, reference compound] | – | – | pEC50 [1]: ~9.60
H-SQEPPISLDLT[dF]ELLREMLEIAKAEQEAEQAALNRKYLEEV-NH2 | very significant lowering of blood pressure | stimulates the secretion of ACTH and β-END-LI | –
H-SQE[dP]PISLDLT[dF]HLLRE[Nle]LE[Nle]AKAEQEAEQAAINRNLLEEA-NH2 | very significant lowering of blood pressure | stimulates the secretion of ACTH and β-END-LI | –
